This is an account of results in article PMC6271681, “Discovery of Novel c-Met Inhibitors Bearing a 3-Carboxyl Piperidin-2-one Scaffold” (Molecules, 2014).

One assay relates to MKN45 cells. Nature of the assay: Cell proliferation assay (SRB, 72 h). It is filed as cell-based. As to conditions: MKN-45, MKN45 human gastric cancer cell line with constitutively active c-Met. The method, then: Cells were seeded in 96-well tissue culture plates. On the next day, the cells were exposed to various concentrations of compounds and further cultured for 72 h. Cell proliferation was then determined using sulforhodamine B (SRB, Sigma, St. Louis, MO, USA). The IC50 values were calculated by concentration-response curve fitting using the four-parameter method.

A further assay has as its target c-Met kinase (Homo sapiens, UniProt P08581). The assay can be described thus: c-Met kinase assay (ELISA, purified recombinant protein). It is filed as biochemical. As to conditions: for IC50: ELISA, poly(Glu,Tyr)4:1 substrate, two separate experiments; for c-Met inhibition rate @10 μM / inhibition at 10 µM: compound at 10 μM; for inhibition at 10 µM: read-out: c-Met inhibition rate @10 μM; for inhibition at 1 µM: read-out: c-Met inhibition rate @1 μM. The method, then:
The effects of indicated compound on the activities of c-Met kinases were determined using enzyme-linked immunosorbent assays (ELISAs) with purified recombinant proteins. Briefly, 20 μg/mL poly (Glu,Tyr)4:1 (Sigma, St. Louis, MO, USA) was pre-coated in 96-well plates as a substrate. A 50-μL aliquot of 10 μmol/L ATP solution diluted in kinase reaction buffer (50 mmol/L HEPES [pH 7.4], 50 mmol/L MgCl2, 0.5 mmol/L MnCl2, 0.2 mmol/L Na3VO4, and 1 mmol/L DTT) was added to each well; 1 μL of various concentrations of indicated compound diluted in 1% DMSO (v/v) (Sigma) were then added to each reaction well. DMSO (1%, v/v) was used as the negative control. The kinase reaction was initiated by the addition of purified c-Met tyrosine kinase proteins diluted in 49 μL of kinase reaction buffer. After incubation for 60 min at 37 °C, the plate was washed three times with phosphate-buffered saline (PBS) containing 0.1% Tween 20 (T-PBS). Anti-phosphotyrosine (PY99) antibody (100 μL; 1:500, diluted in 5 mg/mL BSA T-PBS) was then added. After a 30-min incubation at 37 °C, the plate was washed three times, and 100 μL horseradish peroxidase-conjugated goat anti-mouse IgG (1:2000, diluted in 5 mg/mL BSA T-PBS) was added. The plate was then incubated at 37 °C for 30 min and washed 3 times. A 100-μL aliquot of a solution containing 0.03% H2O2 and 2 mg/ml o-phenylenediamine in 0.1 mol/L citrate buffer (pH 5.5) was added. The reaction was terminated by the addition of 50 μL of 2 mol/L H2SO4 as the color changed, and the plate was analyzed using a multi-well spectrophotometer (SpectraMAX 190, Molecular Devices, Sunnyvale, CA, USA) at 490 nm. […] The IC50 values were calculated from the inhibition curves in two separate experiments.
In general terms: An ELISA detects its analyte on a solid surface through an enzyme-linked reagent.

Another assay concerns c-Met. As to conditions: in Figure 2; cited from earlier work.
Where [1] appears, read: compound at 1 μM, printed in the c-Met IC50 column.
Where [2] appears, read: printed in the c-Met IC50 column.

Chain of c-Met kinase (P08581 25-1390): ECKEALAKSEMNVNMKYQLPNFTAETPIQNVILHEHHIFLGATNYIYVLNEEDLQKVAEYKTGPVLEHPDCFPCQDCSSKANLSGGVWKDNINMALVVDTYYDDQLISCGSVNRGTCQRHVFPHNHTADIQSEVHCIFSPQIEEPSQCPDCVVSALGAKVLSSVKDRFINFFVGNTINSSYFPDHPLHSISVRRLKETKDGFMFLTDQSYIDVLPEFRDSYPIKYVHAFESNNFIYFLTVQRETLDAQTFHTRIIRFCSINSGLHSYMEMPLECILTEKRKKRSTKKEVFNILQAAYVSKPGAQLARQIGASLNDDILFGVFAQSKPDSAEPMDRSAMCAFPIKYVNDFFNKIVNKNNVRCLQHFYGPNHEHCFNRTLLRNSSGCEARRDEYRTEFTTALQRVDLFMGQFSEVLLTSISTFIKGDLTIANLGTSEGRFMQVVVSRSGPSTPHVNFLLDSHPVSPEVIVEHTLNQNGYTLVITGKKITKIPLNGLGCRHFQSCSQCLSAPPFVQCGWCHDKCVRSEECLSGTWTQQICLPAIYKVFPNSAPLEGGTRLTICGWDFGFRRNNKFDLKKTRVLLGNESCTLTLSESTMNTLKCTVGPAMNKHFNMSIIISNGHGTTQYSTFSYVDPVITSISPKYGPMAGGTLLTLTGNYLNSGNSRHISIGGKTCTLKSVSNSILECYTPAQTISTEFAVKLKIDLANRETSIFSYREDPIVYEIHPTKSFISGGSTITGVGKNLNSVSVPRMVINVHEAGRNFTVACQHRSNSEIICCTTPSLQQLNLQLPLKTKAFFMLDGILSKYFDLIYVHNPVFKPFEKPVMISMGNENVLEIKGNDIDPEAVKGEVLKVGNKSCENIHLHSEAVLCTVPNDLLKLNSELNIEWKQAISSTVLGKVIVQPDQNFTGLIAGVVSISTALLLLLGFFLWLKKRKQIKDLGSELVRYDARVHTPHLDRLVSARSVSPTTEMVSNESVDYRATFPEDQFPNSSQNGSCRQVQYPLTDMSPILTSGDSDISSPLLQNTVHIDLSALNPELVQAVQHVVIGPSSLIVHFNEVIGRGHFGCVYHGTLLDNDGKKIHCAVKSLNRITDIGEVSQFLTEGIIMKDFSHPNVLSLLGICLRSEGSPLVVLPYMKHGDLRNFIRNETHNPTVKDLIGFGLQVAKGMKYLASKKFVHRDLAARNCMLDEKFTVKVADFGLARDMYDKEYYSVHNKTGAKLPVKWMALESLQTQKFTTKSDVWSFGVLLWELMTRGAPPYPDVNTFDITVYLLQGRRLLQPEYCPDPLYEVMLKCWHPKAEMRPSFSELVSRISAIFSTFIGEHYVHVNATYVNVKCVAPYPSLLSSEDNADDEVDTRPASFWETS

As a reminder, the IC50 is the concentration that gives 50% inhibition. Regarding `COc1cc2nccc(Oc3ccc(NC(=O)C4(C)CCCN(c5ccc(F)cc5)C4=O)cc3F)c2cc1OC` (centres unmarked) [Compound 20c, N-(4-((6,7-dimethoxyquinolin-4-yl)oxy)-3-fluorophenyl)-1-(4-fluorophenyl)-3-methyl-2-oxopiperidine-3-carboxamide], the IC50 came out at 650 ± 130 nM in the assay with MKN45 cells and 11.2 ± 4.1 nM at c-Met kinase.
Turning to `COc1cc2nccc(Oc3ccc(NC(=O)C4(Cl)CCCN(c5ccc(F)cc5)C4=O)cc3F)c2cc1OC` (centres unmarked) [Compound 20b, 3-Chloro-N-(4-((6,7-dimethoxyquinolin-4-yl)oxy)-3-fluorophenyl)-1-(4-fluorophenyl)-2-oxopiperidine-3-carboxamide], the IC50 in the assay on MKN45 cells was 570 ± 40 nM.
For “N-(4-((7H-pyrrolo[2,3-d]pyrimidin-4-yl)oxy)-3-fluorophenyl)-1-(4-fluorophenyl)-2-oxopiperidine-3-carboxamide [Compound 17a]”, the “c-Met inhibition rate @1 μM” value at c-Met kinase (setting [1]) is 41.9%@1 μM. Moreover, the “c-Met inhibition rate @10 μM” value on c-Met kinase (setting [2]) is 70.7%@10 μM.
On to “N-(4-((7H-pyrrolo[2,3-d]pyrimidin-4-yl)oxy)-3-fluorophenyl)-3-chloro-1-(4-fluorophenyl)-2-oxo-piperidine-3-carboxamide [Compound 17b]”, for which the “c-Met inhibition rate @10 μM” value at c-Met kinase (setting [2]) is 15.4%@10 μM.
Regarding `CCC1(C(=O)Nc2ccc(Oc3ccnc4cc(OC)c(OC)cc34)c(F)c2)CCCN(c2ccc(F)cc2)C1=O` (centres unmarked) [Compound 20d, N-(4-((6,7-dimethoxyquinolin-4-yl)oxy)-3-fluorophenyl)-3-ethyl-1-(4-fluorophenyl)-2-oxopiperidine-3-carboxamide], the IC50 in the assay on MKN45 cells amounted to 2950 ± 120 nM; at c-Met kinase, 19.1 ± 4.5 nM.
What is called inhibition is the share of the control response that was lost under treatment. Turning to `COc1ccc(CNc2nccc(Oc3ccc(NC(=O)C4(Cl)CCCN(c5ccc(F)cc5)C4=O)cc3F)n2)cc1` (centres unmarked) [Compound 18b, 3-Chloro-N-(3-fluoro-4-((2-((4-methoxybenzyl)amino)pyrimidin-4-yl)oxy)phenyl)-1-(4-fluorophenyl)-2-oxopiperidine-3-carboxamide], the inhibition at 10 µM at c-Met kinase (setting [2]) came to 10%.
Turning to `COc1ccc(CNc2nccc(Oc3ccc(NC(=O)C4CCCN(c5ccc(F)cc5)C4=O)cc3F)n2)cc1` (centres unmarked) [Compound 18a, N-(3-fluoro-4-((2-((4-methoxybenzyl)amino)pyrimidin-4-yl)oxy)phenyl)-1-(4-fluorophenyl)-2-oxo-piperidine-3-carboxamide], the inhibition at 10 µM at c-Met kinase (setting [2]) was determined as 28.4%.
As to `COc1cc2nccc(Oc3ccc(NC(=O)C4CCCN(c5ccc(F)cc5)C4=O)cc3F)c2cc1OC` (centres unmarked) [Compound 20a, N-(4-((6,7-dimethoxyquinolin-4-yl)oxy)-3-fluorophenyl)-1-(4-fluorophenyl)-2-oxopiperidine-3-carbox-amide], on c-Met kinase (setting [2]), the inhibition at 10 µM turned out to be 38.4%.
In the case of `CCCCC1(C(=O)Nc2ccc(Oc3ccnc4cc(OC)c(OC)cc34)c(F)c2)CCCN(c2ccc(F)cc2)C1=O` (centres unmarked) [Compound 20e, N-(4-((6,7-dimethoxyquinolin-4-yl)oxy)-3-fluorophenyl)-3-butyl-1-(4-fluorophenyl)-2-oxopiperidine-3-carboxamide], the figures for the IC50 with MKN45 cells and on c-Met kinase were 16000 ± 800 nM and 64 ± 10.8 nM, respectively.
In the case of `NC(=O)c1nccc(Oc2ccc(NC(=O)C3CCCN(c4ccc(F)cc4)C3=O)cc2F)c1Cl` (centres unmarked) [Compound 15a, 3-Chloro-4-(2-fluoro-4-(1-(4-fluorophenyl)-2-oxopiperidine-3-carboxamido)phenoxy)picolinamide], the inhibition at 10 µM on c-Met kinase (setting [2]) turned out to be 63.9%.
`Nc1nccc(Oc2ccc(NC(=O)C3CCCN(c4ccc(F)cc4)C3=O)cc2F)n1` (centres unmarked) [Compound 19a, N-(4-((2-aminopyrimidin-4-yl)oxy)-3-fluorophenyl)-1-(4-fluorophenyl)-2-oxopiperidine-3-carbox-amide]: at c-Met kinase (setting [1]), the inhibition at 1 µM came out at 27.5%. Also, the inhibition at 10 µM on c-Met kinase (setting [2]) was found to be 59.1%.
On the same counts, the results for `NC(=O)c1nccc(Oc2ccc(NC(=O)C3(Cl)CCCN(c4ccc(F)cc4)C3=O)cc2F)c1Cl` (centres unmarked) [Compound 15b, 3-Chloro-4-(4-(3-chloro-1-(4-fluorophenyl)-2-oxopiperidine-3-carboxamido)-2-fluorophenoxy)-picolinamide] are 38.7% and 90.2%.
On to `Nc1nccc(Oc2ccc(NC(=O)C3(Cl)CCCN(c4ccc(F)cc4)C3=O)cc2F)n1` (centres unmarked) [Compound 19b, N-(4-((2-aminopyrimidin-4-yl)oxy)-3-fluorophenyl)-3-chloro-1-(4-fluorophenyl)-2-oxopiperidine-3-carboxamide], for which the inhibition at 1 µM on c-Met kinase (setting [1]) worked out at 28.3%. In addition, at c-Met kinase (setting [2]), the inhibition at 10 µM amounted to 52.5%.
With `CCOc1ccn(-c2ccc(F)cc2)c(=O)c1C(=O)Nc1ccc(Oc2ccnc(N)c2Cl)c(F)c1` [BMS-777607, N-(4-(2-amino-3-chloropyridin-4-yloxy)-3-fluorophenyl)-4-ethoxy-1-(4-fluorophenyl)-2-oxo-1,2-dihydropyridine-3-carboxamide, reference compound], the figures for the IC50 in the assay with c-Met, in the assay on MKN45 cells and at c-Met kinase were 3.9 nM, 290 ± 20 nM and 3.7 ± 1.3 nM, respectively.
